The source of these data is PMC4974772, “In vitro anti-Leishmania activity of tetracyclic iridoids from Morinda lucida, benth” (Tropical Medicine and Health, 2016).

Where “and” joins values, the source holds several entries; their conditions need not be identical. Equal entries are not always repeated. Where two headings read alike, the source gives them in different places.

Experiment [1] concerns Leishmania hertigi promastigotes. The experiment is described as follows: In vitro viacount assay (Guava viacount, FACS) on L. hertigi promastigotes. Format: cell-based. As for the experimental part:
(§1) The field strain of L. enriettii (010) promastigotes, which had been isolated in Ghana, and the lab strain, Leishmania hertigi promastigotes, were used in this study because of their availability. Parasites were cultured in vitro according to conditions established previously. Log phase of parasites (1 × 10^6 parasites/ml) was diluted to a parasitemia of 3 × 10^5 parasites/ml with M199 medium and used for the drug assay. Estimation of parasitemia was done with the Neubauer’s counting chamber.
Leishmania promastigote forms of L. hertigi parasites were seeded and incubated in the presence or absence of (50–0.78 μM) compounds (dissolved in DMSO) for 48 h, after which the Guava reagent for viacount (Millipore) was added to the culture in the ratio of 1:1 and incubated for 30 min. Analysis was performed using the Millipore guava easyCyte 5HT (USA) according to the manufacture’s instruction.
(§2) The aim of the study was to investigate the anti-Leishmania properties of the three novel tetracyclic iridoid compounds previously found to have anti-trypanosome activity. In the determination of the effect of Molucidin, ML-2-3, and ML-F52 on L. hertigi and 010, parasites were challenged with 0–50 μM of each compound for 48 and 96 h to determine MIC and the concentration of compounds that inhibited parasite growth by 50 % (IC50) by microscopy and fluorescence-activated cell sorting (FACS) analysis, respectively. […] All three compounds share same side chains, iridoid tetracyclic skeleton, but differ in their functional group region. Molucidin and ML-F52 are esters while ML-2-3 is carboxylic acid. The functional groups may play a key role in the activity of the compounds against Leishmania.

Experiment [2] has as its system Leishmania 010 (field strain of L. enriettii) promastigotes. The experiment is described as follows: MIC by microscopy on Leishmania field strain 010 promastigotes. The experiment is classed as cell-based, L. enriettii (010). Here is the method: as §1
Promastigotes of Leishmania 010 were seeded and incubated in the presence or absence of (50–0.78 μM) compounds for 96 h and the minimum inhibitory concentration (MIC) of the compounds determined by microscopy.
as §2, with “Molucidin and ML-F52 are esters while ML-2-3 is carboxylic acid. The functional groups may play a key role in the activity of the compounds against Leishmania.” left out

Experiment [3] deals with L. hertigi parasites. The experiment is described as follows: Fluor-microscopy analysis using DAPI (nucleus/kinetoplast count, morphology). Format: cell-based, Leishmania hertigi. To be noted: 4 μM, 48 h, DAPI staining. Here is the method: Parasites were incubated for 24 h under appropriate conditions (25 °C) with appropriate concentrations of active compounds, Molucidin and ML-F52. Parasites were then harvested and fixed with 4 % paraformaldehyde at room temperature for 5 min. Washing steps were carried out with PBS and PBST (0.1 % Triton X 100 in PBS) at room temperature for 5 min and 15 min, respectively. The parasites were stained with 4’,6-diamidino-2’-phenylindole dihydrochloride (DAPI) (5 μg/ml DAPI in PBS) for 10 min. After washing steps as above, the slides were mounted using parmafluor mounting reagent and covered with cover slips. The slides were observed under the Olympus fluorescent microscope (Olympus BX53) to detect any phenotypic changes in L. hertigi parasites.
To investigate the effect of Molucidin and ML-F52 on the morphology and cell division of L. hertigi, we performed fluor-microscope observation with DAPI staining after incubation of parasite with 4 μM of Molucidin and ML-F52 for 48 h. […] The inhibition of cytokinesis might imply the inability of cells to replicate in the mammalian host and increase the parasite burden. This may prevent the parasites from over running the host-immune and may give the host the edge to clear the infection. […]

The test system of experiment [4] is Chang Liver (normal liver). The experiment is described as follows: Cytotoxicity on normal liver Chang Liver. The experiment is classed as cell-based. To be noted: 48 h. As for the experimental part:
(§3) Table 2 Selective index of compounds tested for anti-Leishmania activity | column: IC50 (μM), 48 h / ML-2-2; IC50 (μM), 48 h / ML-2-3; IC50 (μM), 48 h / ML-F52; SI / ML-2-2; SI / ML-2-3; SI / ML-F52

The subject of experiment [5] is NBIRGB (normal skin fibroblasts). The experiment is described as follows: Cytotoxicity on normal skin fibroblasts NBIRGB. To be noted: 48 h. Format: cell-based. As for the experimental part:
as §3

Experiment [6] relates to HF-19 (normal lung fibroblasts). The experiment is described as follows: Cytotoxicity on normal lung fibroblasts HF-19. Format: cell-based. Particulars: 48 h. Here is the method: as §3
The subject of experiment [7] is Hs-888Lu (normal lung). The experiment is described as follows: Cytotoxicity on normal lung Hs-888Lu. The experiment is classed as cell-based. Particulars: 48 h. As for the experimental part: as §3

For `C[C@@H]1[C@H](O)[C@@H](C)/C=C/C=C/C=C/C=C/C=C/C=C/C=C/[C@H](O[C@@H]2O[C@H](C)[C@@H](O)[C@H](N)[C@@H]2O)C[C@@H]2O[C@](O)(C[C@@H](O)C[C@@H](O)[C@H](O)CC[C@@H](O)C[C@@H](O)CC(=O)O[C@H]1C)C[C@H](O)[C@H]2C(=O)O` [amphotericin B, reference compound], the IC50 – broadly, the midpoint of a concentration-inhibition curve – in experiment [1] (Leishmania hertigi, positive control, strain not stated in footnote, read-out: IC50 of amphotericin B (positive control)) came to 0.1 µg/mL.

Consider `COC(=O)C1=CO[C@@H]2O[C@H]3/C(=C\c4ccc(O)c(OC)c4)C(=O)O[C@]34C=C[C@H]1[C@H]24` [Molucidin], for which the “anti-Leishmania activity” value in experiment [2] (010 field strain, 0–50 μM, 96 h) is “had anti-Leishmania activity”; in experiment [1] (L. hertigi, 0–50 μM, 48 h) it was “had anti-Leishmania activity”. For the same molecule, in experiment [2] (promastigotes, 50–0.78 μM, microscopy), the “MIC after 96 h (010)” value was 4.167 µM and 4.17 µM. Moreover, the “effect on parasite morphology” value in experiment [3] is recorded as “induced short stumpy form parasite cells”. In experiment [3] (microscopic counting, DMSO-treated cells 10 % 2N/2K), the “2N/2K cells (two sets of nucleus and kinetoplast)” value was 30–40%. Also, the IC50 in experiment [4] worked out at 9.34 µM; in experiment [5], 7.11 µM; in experiment [6], 14.2 µM; in experiment [1] (promastigotes, 48 h, 50–0.78 μM, Guava viacount FACS, read-out: IC50 after 48 h (L. hertigi)), 4.24 µM; in experiment [7] it was 9.29 µM.
